Laboratory results published in PMC5891061, “Electrophysiological mechanisms of vandetanib-induced cardiotoxicity: Comparison of action potentials in rabbit Purkinje fibers and pluripotent stem cell-derived cardiomyocytes” (PLoS ONE, 2018).

What was measured:
hERG (IKr) = hERG (IKr) (Homo sapiens, UniProt Q12809); assay: Whole-cell patch clamp, IhERG tail current in transfected HEK293 cells
Description: For various aspects of cardiac ion channel study, human embryonic kidney (HEK293; ATCC, Manassas, VA, USA) cells were transiently transfected using lipofectAmin2000 (Gibco BRL, New York, NY, USA) according to the manufacturer’s instructions. The hERG (human ether-ago-go-related gene corresponding to IKr), KCNQ1/KCNE1 (the gene corresponding to IKs), KCNJ2 (the gene corresponding to IK1) or SCN5A (the gene corresponding to INa) cDNA was co-transfected with green fluorescence protein, the surface marker protein, to allow assessment of the transfection efficiency. For the calcium current, enzymatically isolated single rat ventricular myocytes were used. Briefly, the hearts were rapidly excised from anaesthetized Sprague–Dawley rats (250–350 g) and perfused via the aorta on a Langendorff apparatus with an oxygenated normal Tyrode (NT) solution for 5 min. To clear the blood, then perfused with Ca^2+-free normal Tyrode solution for 3 min. […]
The external solution for recording the IhERG, IKs and INa channel currents was NT solution. […] The calcium current was measured in naïve rat ventricular myocytes, cells were superfused with an external solution that consisted of (in mM): 137 choline-Cl, 5 CsCl, 0.5 MgCl2, 2 4-AP, 10 HEPES, 10 glucose and 1.8 CaCl2 (pH 7.4 with NaOH), whereas the intracellular solution used to fill the pipette had the following ionic solution (in mM): 20 CsCl, 100 Cs-aspartate, 10 EGTA, 10 HEPES, 20 TEA-Cl, 5 Mg-ATP (pH 7.25 with KOH). […]
pCLAMP (Axon Instruments, Foster City, CA, USA), Origin 8 (OriginLab Corp, Northampton, MA, USA), and Excel (Microsoft, Redmond, WA, USA) were used for data acquisition and analysis. The concentration–response relationships for drug-induced blockage were calculated using SigmaPlot (Systat Software, San Jose, CA, USA). […] Statistical significance was determined using the Student’s t-test and one-way ANOVA with post hoc testing using Dunnett’s method; p < 0.05 was considered to indicate statistical significance. […]

IhERG in hiPSC-CMs = molecular target: T1, IhERG in hiPSC-CMs (Homo sapiens, UniProt Q12809); assay: IhERG current in hiPSC-CMs (voltage clamp); type: cell-based; parameters: unit not given here
T1 construct: host or cells: hiPSC-CMs (iCell Cardiomyocytes)
T1 sequence (Q12809 whole entry): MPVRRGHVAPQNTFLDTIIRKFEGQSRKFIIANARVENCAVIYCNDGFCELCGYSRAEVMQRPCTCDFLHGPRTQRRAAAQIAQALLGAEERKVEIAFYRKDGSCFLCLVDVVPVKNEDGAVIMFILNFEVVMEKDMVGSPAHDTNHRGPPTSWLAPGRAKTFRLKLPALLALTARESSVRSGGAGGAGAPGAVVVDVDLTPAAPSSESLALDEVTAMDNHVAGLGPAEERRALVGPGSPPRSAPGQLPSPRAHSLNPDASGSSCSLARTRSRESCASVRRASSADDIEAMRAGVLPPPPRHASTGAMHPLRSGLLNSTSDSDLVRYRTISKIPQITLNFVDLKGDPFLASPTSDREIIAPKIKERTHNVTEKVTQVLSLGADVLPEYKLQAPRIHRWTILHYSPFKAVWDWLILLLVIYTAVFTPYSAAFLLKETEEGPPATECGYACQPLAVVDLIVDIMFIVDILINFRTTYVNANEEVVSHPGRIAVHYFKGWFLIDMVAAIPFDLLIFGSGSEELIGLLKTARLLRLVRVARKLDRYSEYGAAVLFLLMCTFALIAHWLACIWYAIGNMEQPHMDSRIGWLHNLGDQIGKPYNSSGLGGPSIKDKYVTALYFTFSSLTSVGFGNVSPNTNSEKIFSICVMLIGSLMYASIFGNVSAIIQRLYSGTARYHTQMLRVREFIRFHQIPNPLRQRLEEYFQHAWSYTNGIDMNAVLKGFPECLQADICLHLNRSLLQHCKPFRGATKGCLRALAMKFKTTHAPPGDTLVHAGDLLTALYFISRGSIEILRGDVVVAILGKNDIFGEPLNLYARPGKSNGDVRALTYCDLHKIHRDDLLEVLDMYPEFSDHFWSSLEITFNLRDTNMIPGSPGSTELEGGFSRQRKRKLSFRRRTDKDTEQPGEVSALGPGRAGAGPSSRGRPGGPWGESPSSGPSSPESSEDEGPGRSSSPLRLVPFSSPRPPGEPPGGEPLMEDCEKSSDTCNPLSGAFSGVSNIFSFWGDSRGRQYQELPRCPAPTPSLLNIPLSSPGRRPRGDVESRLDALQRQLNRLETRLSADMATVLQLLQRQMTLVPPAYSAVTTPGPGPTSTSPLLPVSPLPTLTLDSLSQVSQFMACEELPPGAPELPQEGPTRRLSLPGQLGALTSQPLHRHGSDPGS
Protocol: The hiPSC-CMs from human fibroblast cell lines (iCell Cardiomyocytes; Cellular Dynamics International, Madison, WI, USA) were purchased and cultured for single-cell electrophysiological recordings. Frozen vials of hiPSC-CMs were thawed in a water bath maintained at 37°C and mixed with ice-cold plating medium (iCell Cardiomyocyte Plating Medium, glucose-free). The cells were transferred to four-well culture plates containing 0.1% gelatin-coated glass coverslips and then maintained in a culture incubator at 37°C in an atmosphere of 93% air and 7% CO2. After 2 days of culture, the plating medium was replaced with culture medium (iCell Cardiomyocyte Maintenance Medium, glucose-free), which was then changed every 2 days. The hiPSC-CMs were cultured for 4 weeks and used at 7 to 28 days post-thaw for electrophysiological analysis. […] The internal solution contained (in mM) 120 K-Asp, 20 KCl, 5 NaCl, 2 CaCl2, 10 HEPES, 5 EGTA, and 5 Mg-ATP (pH 7.25). We recorded typical APs in hiPSC-CMs in the current-clamp mode. The spontaneous beating activity or paced firing of single hiPSC-CMs were recorded, and only hiPSC-CMs that could beat stably were included in the analysis. Following stabilization of the AP waveforms, the average of six recorded APs for each test concentration was analyzed.
pCLAMP (Axon Instruments, Foster City, CA, USA), Origin 8 (OriginLab Corp, Northampton, MA, USA), and Excel (Microsoft, Redmond, WA, USA) were used for data acquisition and analysis. The concentration–response relationships for drug-induced blockage were calculated using SigmaPlot (Systat Software, San Jose, CA, USA). […] Data are presented as the means ± SEM, and n represents the number of experimental replicates. Statistical significance was determined using the Student’s t-test and one-way ANOVA with post hoc testing using Dunnett’s method; p < 0.05 was considered to indicate statistical significance.

WT hERG = WT hERG (Homo sapiens, UniProt Q12809); assay: Alanine scanning: wild-type hERG current in HEK-293 cells
Chain of WT hERG (Q12809 whole entry): as above
Description: The hERG mutations were constructed by site-directed mutagenesis of WT hERG cDNA in pcDNA3.1 vector using the QuickChange Site-Directed Mutagenesis Kit (Stratagene), and the integrity of the construct was verified by DNA sequencing. The WT hERG (generously donated by Professor Ho, Seoul National University, Korea) and mutant channels were transiently expressed in an HEK-293 cell line using Lipofectamine 2000 (Gibco), according to the manufacturer’s recommendations.

Chain of hERG (IKr) (Q12809 whole entry, the tested form may be a part): as the sequence (Q12809 whole entry) above

In the case of `COc1cc2c(Nc3ccc(Br)cc3F)ncnc2cc1OCC1CCN(C)CC1` [Vandetanib], the “Reduction of IhERG current amplitude” value (hERG (IKr); 0.3 μM) is reported as 17.04%, the “Reduction of IhERG current amplitude” value (hERG (IKr); 1 μM) is reported as 45.32% and the “Reduction of IhERG current amplitude” value (hERG (IKr); 3 μM) is reported as 76.05%. For the same compound, the IhERG current (IhERG in hiPSC-CMs; 0.1 μM) was 196.0 ± 3.2, the IhERG current (IhERG in hiPSC-CMs; 0.3 μM) was 164.9 ± 9.4 and the IhERG current (IhERG in hiPSC-CMs; 1 μM) was 92.8 ± 11.2. The IhERG current (IhERG in hiPSC-CMs; 3 μM) was 20.4 ± 4.4, the “WT hERG current” value (WT hERG; 3 μM) was 208.9 ± 21.6 and the inhibition at 3 μM (WT hERG; human, HEK-293 cells transiently expressing wild-type hERG) was ~86.4%.
